# Assay results reported in patent publication US10080779B2, “Method for increasing the expression of anti-microbial peptides by keratinocytes comprising administering a composition comprising IL-17, TNF-alpha and OSM” (Universite D'Angers, priority 2004, dated 2018).
# Legend:
# NHEK [1] = test: Keratinocyte differentiation marker (KDM) mRNA in NHEK (RT-PCR); format: cell-based, human; conditions: 24 h
# Method: Normal human epidermal keratinocytes (NHEK) were obtained as previously described, from surgical samples of healthy breast skin (Boniface et al, 2005). NHEK were cultured to 80% of confluence allowing the expression of a large panel of keratinocyte differentiation markers, and then starved for 24 h in Keratinocyte SFM containing 0.03 mM Ca^2+ (Invitrogen Life Technologies, Cergy Pontoise, France) before stimulation. Confluent differentiated cells were stimulated with or without recombinant IL-17A, OSM, TNFα, IL-22 and IL-1α alone at maximum effective concentrations (reported previously around 10 ng/ml (Boniface et al, 2005 and Boniface et al, 2007)) or in combination (R&D systems Europe, Lille, France) during 2 h to 72 h for mRNA quantification. RHE were generated on polycarbonate culture inserts, from surgical samples of paediatric foreskins as previously described (Guenou et al., 2009). RHE were stimulated with or without recombinant IL-17A, OSM, TNFα, IL-22 and IL-1α alone or in combination, with or without a Janus protein Tyrosine Kinases (JAKs) inhibitor 10 μM (Calbiochem, 420099), during 24 h for mRNA quantification or during 72 h for immunohistological analysis.
# NHEK, RHE and murine skin total RNA were isolated using NucleoSpin® RNA II kit (Macherey-Nagel, Hoerdt, France) and reverse-transcribed with SuperScript® II Reverse Transcriptase (Invitrogen Life Technologies) according to the manufacturer's instructions. Quantitative real time PCR was carried out using the LightCycler-FastStart DNA Master SYBR® Green I kit on LightCycler 480 (Roche Diagnostics, Meylan, France). The reaction components were 1×DNA Master Mix, and 0.5 μM of HPLC purified sense and anti-sense oligonucleotides purchased from Eurogentec (Eurogentec France, Angers, France), designed using Primer3 software. The stability of the housekeeping gene expression has been assessed by using GeNorm algorithm. […] Thus samples were normalized to G3PDH housekeeping gene and reported according to the ΔΔCT method as RNA fold increase: 2^ΔΔCT=2^ΔCT sample−ΔCT reference.
# [2] = tested on: reconstituted human epidermis (RHE); test: Reconstituted human epidermis model, histology and immunohistochemistry (OSM); format: cell-based
# Method: For histological and immunohistochemical studies, RHE, grown for 12 days at the air-medium interface, were purchased from SkinEthic Laboratories (Nice, France). […] As recommended, RHE were grown for 1 day in SkinEthic growth medium prior to stimulation in the absence or presence of OSM for 4 days. They were then fixed in a balanced 10% formalin solution and embedded in paraffin. Four micron vertical sections were stained with heamatoxylin/eosin or with specific Ab and peroxidase-conjugated Antibodies, and counterstained with haematoxylin according to standard protocols (Rosdy, Bertino et al. 1997). Anti-K10 keratin and anti-filaggrin monoclonal Antibodies were from Lab Vision Corporation (Fremont, Calif., USA).
# MAP kinase (ERK1/2) = test: MAP kinase phosphorylation in NHEK (Western blot); format: cell-based, human; conditions: NHEK stimulated with OSM
# Method: For STAT3 and MAPK phosphorylation, NHEK were stimulated for 15 min in the presence of the indicated cytokine. Cells were lysed in SDS sample buffer (62.5 mM Tris-HCl pH 6.8, 2% SDS, 10% glycerol, 50 mM DTT, 0.1% bromophenol blue), sonicated and then submitted to SDS-PAGE and transferred onto an Immobilon membrane. The membranes were subsequently incubated overnight with the primary antibody, before being incubated with the appropriate peroxidase-labelled secondary antibody for 60 min. The reaction was visualized by chemiluminescence according to the manufacturer's instructions. Membranes were stripped in 0.1 M glycine pH 2.8 for 2 h and neutralized in 1 M Tris-HCl pH 7.6 before reblotting. For neutralizing experiments, NHEK were incubated with the appropriate antibodies for 2 h before stimulation.
# NHEK [3] = test: Chemokine production by NHEK (ELISA), OSM; format: cell-based, human; conditions: 48 h NHEK under OSM stimulation
# Method: IL-1beta, IL-6, IL-8, IL-10, IL-12p70, TNF alpha, ENA-78, MIP 3 beta were measured by specific ELISA in 48 h NHEK culture supernatants. Cells were cultured in the presence or not of OSM. Dose-response (0.4 to 25 ng/ml) and kinetic (6 to 96 h) studies of ENA78 production were also performed.
# NHEK [4] = test: S100 proteins expression in NHEK (Western blot); format: cell-based, human; conditions: 10 ng/ml OSM, day 2 and day 4
# Method: […] Cell lysis was performed with 50 mM Tris HCl pH 7.4, 150 mM NaCl, 1 mM EDTA, 1% Triton, 1% sodium deoxycholate, 0.1% SDS, 1 mM PMSF, 1 mM sodium orthovanadate, 1% protease inhibitors. S100A7, S100A8 and S100A9 were detected by immunochemistry as described above. Ponceau red staining was used to control loading homogeneity.
substance,measurement,setting,value
"OSM: human recombinant oncostatin M, cytokine of the IL-6 family",Rank as contributor to keratinocyte differentiation inhibition (removal from M5),NHEK [1],most potent cytokines for keratinocyte differentiation inhibition
same,"mRNA expression of CK1, DSG1, DSC1, FLG, CLSP, LOR and FABPS",NHEK [1]; single cytokines 10 ng/ml,downregulate mRNA expression
same,Hyperplasia / overall thickness of RHE,"[2]; 10 ng/ml OSM, 4 days",triggered the hyperplasia of the keratinocytes layers
same,Ki67 expression,[2]; RHE treated with OSM,not induced
same,Filaggrin and keratin 10 expression (immunohistochemistry),"[2]; RHE, 10 ng/ml OSM, 4 days",decrease of filaggrin and keratin 10 expression
same,S100A7 protein (immunohistochemistry),"[2]; RHE, 10 ng/ml OSM, 4 days",S100A7 protein up-regulation
same,MAP kinase phosphorylation,MAP kinase (ERK1/2),quickly increased the MAP kinase phosphorylation
same,Production of chemokines CXCL5 and CXCL8,NHEK [3],clearly enhanced
same,"S100A7, S100A8, S100A9 protein expression",NHEK [4],increased expression of studied proteins
